These results are taken from ChEMBL document CHEMBL3596148, “Meridianin derivatives as potent Dyrk1A inhibitors and neuroprotective agents” (Bioorg Med Chem Lett, 2015).

The test system of data set [1] is SH-SY5Y. Put plainly: Neuroprotective activity against glutamate-induced neurotoxicity in human SH-SY5Y cells assessed as cell viability at 10 uM incubated for 30 mins prior to glutamate challenge measured after 24 hrs by MTT assay (reference value: 73.8 +/- 4.5%). Type of data set: functional. Conditions: read-out: Activity. A general note: Tetrazolium dyes change colour on reduction, which living cells bring about.

Data set [2] deals with SH-SY5Y. Put plainly: Neuroprotective activity against glutamate-induced neurotoxicity in human SH-SY5Y cells assessed as cell viability at 50 uM incubated for 30 mins prior to glutamate challenge measured after 24 hrs by MTT assay (reference value: 73.8 +/- 4.5%). Format: functional. As to conditions: read-out: Activity.
Data set [3] has as its system SH-SY5Y. Description: cells. As to conditions: Homo sapiens, 24 h.
Data set [4] can be described thus: Cytotoxicity against human SH-SY5Y cells assessed as cell viability at 30 uM after 24 hrs by MTT assay relative to control. Type of data set: cell-based. Conditions: read-out: Activity.
Data set [5] deals with Casein kinase I isoform alpha (Homo sapiens) (UniProt P48729). Put plainly: Inhibition of CK1 (unknown origin) at 0.5 uM relative to control.
Data set [6] concerns the target Cyclin-dependent kinase 2 (Homo sapiens) (UniProt P24941). Put plainly: Inhibition of CDK2 (unknown origin) at 0.5 uM relative to control.
Data set [7] concerns the target RAC-alpha serine/threonine-protein kinase (Homo sapiens) (UniProt P31749). Description: Inhibition of PKBalpha (unknown origin) at 0.5 uM relative to control.
For data set [8], the target named is T1, Inhibitor of nuclear factor kappa-B kinase subunit beta (Homo sapiens) (UniProt O14920).
T1 sequence (whole entry): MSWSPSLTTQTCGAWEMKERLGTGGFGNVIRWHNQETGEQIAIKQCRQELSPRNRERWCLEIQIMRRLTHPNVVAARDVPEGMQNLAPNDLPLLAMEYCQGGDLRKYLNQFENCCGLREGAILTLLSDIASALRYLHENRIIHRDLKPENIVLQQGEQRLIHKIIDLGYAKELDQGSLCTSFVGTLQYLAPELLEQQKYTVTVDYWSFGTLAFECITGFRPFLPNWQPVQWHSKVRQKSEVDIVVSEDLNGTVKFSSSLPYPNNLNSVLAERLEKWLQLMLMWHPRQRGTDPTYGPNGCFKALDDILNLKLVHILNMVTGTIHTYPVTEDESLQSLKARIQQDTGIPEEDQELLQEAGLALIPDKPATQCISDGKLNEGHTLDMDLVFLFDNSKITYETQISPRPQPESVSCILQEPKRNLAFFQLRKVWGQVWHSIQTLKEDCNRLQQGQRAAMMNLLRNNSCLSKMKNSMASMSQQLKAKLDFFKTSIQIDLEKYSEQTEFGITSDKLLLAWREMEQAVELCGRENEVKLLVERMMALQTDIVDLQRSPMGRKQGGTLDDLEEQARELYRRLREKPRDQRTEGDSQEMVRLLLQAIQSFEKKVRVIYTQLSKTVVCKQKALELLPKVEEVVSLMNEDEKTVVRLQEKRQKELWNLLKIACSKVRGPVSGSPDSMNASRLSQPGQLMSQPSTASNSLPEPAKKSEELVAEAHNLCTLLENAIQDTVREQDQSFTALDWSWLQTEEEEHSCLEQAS
Description: Inhibition of IKKbeta (unknown origin) at 0.5 uM relative to control.

Data set [9] concerns the target Aurora kinase B (Homo sapiens) (UniProt Q96GD4). Put plainly: Inhibition of Aurora B (unknown origin) at 0.5 uM relative to control.
The target in data set [10] is Insulin-like growth factor 1 receptor (Homo sapiens) (UniProt P08069). Description: Inhibition of IGF-1R (unknown origin) at 0.5 uM relative to control.
Data set [11] concerns the target Insulin receptor (Homo sapiens) (UniProt P06213). Put plainly: Inhibition of IR (unknown origin) at 0.5 uM relative to control.
For data set [12], the target named is Tyrosine-protein kinase ABL1 (Homo sapiens) (UniProt P00519). Description: Inhibition of Abl (unknown origin) at 0.5 uM relative to control.
In data set [13] the target is Protein kinase C alpha type (Homo sapiens) (UniProt P17252). Description: Inhibition of PKCalpha (unknown origin) at 0.5 uM relative to control.
In data set [14] the target is Glycogen synthase kinase-3 beta (Homo sapiens) (UniProt P49841). Put plainly: Inhibition of GSK3beta (unknown origin) at 0.5 uM relative to control.
Data set [15] has as its target Cyclin-dependent kinase 9 (Homo sapiens) (UniProt P50750). Description: Inhibition of CDK9 (unknown origin) at 0.5 uM relative to control.
The target in data set [16] is T2, Aurora kinase A (Homo sapiens) (UniProt O14965).
T2 sequence (whole entry): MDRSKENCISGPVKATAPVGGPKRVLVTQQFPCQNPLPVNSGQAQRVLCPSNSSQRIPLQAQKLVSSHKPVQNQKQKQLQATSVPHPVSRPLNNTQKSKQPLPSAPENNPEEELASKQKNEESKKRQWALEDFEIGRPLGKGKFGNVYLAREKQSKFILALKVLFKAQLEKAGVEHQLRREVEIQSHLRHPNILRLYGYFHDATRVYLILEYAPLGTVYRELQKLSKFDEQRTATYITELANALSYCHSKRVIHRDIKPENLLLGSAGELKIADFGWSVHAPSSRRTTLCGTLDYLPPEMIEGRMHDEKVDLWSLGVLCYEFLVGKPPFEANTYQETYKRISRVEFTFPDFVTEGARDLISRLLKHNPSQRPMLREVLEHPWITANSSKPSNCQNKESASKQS
Put plainly: Inhibition of Aurora A (unknown origin) at 0.5 uM relative to control.

In data set [17] the target is AMP-activated protein kinase, AMPK (Homo sapiens) (UniProt P54646+O43741+P54619+Q9UGJ0+Q9Y478+Q13131+Q9UGI9). Put plainly: Inhibition of AMPK (unknown origin) at 0.5 uM relative to control. Type of data set: protein-complex assay.
The target in data set [18] is Vascular endothelial growth factor receptor 1 (Homo sapiens) (UniProt P17948). Description: Inhibition of VEGFR1 (unknown origin) at 0.5 uM relative to control.
For data set [19], the target named is RAC-beta serine/threonine-protein kinase (Homo sapiens) (UniProt P31751). Description: Inhibition of PKBbeta (unknown origin) at 0.5 uM relative to control.
RAC-beta serine/threonine-protein kinase (Homo sapiens), sequence (P31751 whole entry): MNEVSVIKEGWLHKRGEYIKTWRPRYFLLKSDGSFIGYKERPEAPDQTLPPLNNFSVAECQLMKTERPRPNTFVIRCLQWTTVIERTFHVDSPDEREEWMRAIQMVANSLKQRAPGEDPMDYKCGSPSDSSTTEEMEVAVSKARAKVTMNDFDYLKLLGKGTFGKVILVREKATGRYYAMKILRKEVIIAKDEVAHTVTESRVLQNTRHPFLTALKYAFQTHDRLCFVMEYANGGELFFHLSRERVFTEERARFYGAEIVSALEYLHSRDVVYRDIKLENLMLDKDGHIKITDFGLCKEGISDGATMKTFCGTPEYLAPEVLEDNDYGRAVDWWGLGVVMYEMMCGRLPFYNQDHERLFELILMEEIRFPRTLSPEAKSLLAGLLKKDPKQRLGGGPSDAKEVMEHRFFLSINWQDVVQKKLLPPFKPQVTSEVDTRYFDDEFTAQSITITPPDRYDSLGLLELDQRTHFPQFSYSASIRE

Insulin-like growth factor 1 receptor (Homo sapiens), sequence (P08069 31-736 limits assumed): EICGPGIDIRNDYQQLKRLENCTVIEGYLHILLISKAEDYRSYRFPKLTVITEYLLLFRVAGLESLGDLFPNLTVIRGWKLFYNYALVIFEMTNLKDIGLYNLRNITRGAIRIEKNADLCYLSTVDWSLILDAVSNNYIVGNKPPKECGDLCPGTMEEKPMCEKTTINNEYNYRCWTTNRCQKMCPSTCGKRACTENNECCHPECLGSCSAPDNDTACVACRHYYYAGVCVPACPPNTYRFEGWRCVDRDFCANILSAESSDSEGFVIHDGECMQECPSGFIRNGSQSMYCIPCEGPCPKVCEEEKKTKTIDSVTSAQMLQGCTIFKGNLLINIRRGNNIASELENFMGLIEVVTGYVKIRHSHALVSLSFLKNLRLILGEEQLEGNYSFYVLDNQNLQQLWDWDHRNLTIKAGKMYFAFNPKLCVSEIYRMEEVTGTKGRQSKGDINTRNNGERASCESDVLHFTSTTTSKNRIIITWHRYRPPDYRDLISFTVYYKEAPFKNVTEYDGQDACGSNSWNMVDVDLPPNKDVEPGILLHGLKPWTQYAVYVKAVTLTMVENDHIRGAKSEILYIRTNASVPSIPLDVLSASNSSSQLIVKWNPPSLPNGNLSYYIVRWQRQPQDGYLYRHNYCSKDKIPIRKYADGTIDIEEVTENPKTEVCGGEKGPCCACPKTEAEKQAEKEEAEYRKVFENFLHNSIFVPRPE
Insulin-like growth factor 1 receptor (Homo sapiens), sequence (P08069 741-1367 limits assumed): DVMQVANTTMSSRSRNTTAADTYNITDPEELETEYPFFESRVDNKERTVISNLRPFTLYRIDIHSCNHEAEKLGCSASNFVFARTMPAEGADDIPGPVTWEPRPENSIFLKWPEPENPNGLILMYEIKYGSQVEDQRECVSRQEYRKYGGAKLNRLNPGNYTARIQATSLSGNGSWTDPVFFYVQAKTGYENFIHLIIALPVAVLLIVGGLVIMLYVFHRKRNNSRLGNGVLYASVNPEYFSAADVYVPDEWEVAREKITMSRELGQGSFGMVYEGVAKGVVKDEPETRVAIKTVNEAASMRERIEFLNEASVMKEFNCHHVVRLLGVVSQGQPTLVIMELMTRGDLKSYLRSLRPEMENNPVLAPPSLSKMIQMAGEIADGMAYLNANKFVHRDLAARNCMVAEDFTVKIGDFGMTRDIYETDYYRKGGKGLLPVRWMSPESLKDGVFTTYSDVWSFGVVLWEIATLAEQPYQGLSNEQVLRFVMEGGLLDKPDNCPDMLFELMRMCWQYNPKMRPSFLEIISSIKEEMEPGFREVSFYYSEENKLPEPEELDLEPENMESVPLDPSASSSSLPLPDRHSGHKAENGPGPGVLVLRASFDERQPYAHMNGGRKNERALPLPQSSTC
Glycogen synthase kinase-3 beta (Homo sapiens), sequence (P49841 whole entry, looked up): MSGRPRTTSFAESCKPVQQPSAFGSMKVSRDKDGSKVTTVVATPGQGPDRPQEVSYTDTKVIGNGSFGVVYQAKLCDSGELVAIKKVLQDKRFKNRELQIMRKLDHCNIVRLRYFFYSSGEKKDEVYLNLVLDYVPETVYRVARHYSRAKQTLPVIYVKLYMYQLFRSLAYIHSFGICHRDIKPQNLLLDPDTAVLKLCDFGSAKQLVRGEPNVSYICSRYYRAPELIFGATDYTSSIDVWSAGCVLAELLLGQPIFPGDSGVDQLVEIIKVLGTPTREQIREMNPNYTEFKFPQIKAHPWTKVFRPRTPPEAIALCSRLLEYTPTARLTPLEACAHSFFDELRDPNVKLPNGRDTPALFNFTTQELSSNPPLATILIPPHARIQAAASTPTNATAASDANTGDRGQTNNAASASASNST
RAC-alpha serine/threonine-protein kinase (Homo sapiens), sequence (P31749 whole entry): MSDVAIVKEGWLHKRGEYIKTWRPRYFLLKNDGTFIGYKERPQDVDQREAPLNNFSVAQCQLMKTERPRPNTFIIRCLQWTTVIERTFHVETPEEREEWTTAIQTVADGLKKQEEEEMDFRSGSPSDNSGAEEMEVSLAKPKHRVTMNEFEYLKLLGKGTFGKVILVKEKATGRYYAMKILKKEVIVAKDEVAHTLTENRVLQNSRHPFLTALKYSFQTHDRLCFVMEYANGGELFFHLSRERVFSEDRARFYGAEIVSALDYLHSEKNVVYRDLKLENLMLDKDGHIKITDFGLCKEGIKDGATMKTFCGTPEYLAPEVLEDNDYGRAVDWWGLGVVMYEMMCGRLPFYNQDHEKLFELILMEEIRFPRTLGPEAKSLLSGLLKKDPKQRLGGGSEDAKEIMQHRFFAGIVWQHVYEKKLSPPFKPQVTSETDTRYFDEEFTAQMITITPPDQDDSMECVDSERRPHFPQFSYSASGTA
Tyrosine-protein kinase ABL1 (Homo sapiens), sequence (P00519 whole entry): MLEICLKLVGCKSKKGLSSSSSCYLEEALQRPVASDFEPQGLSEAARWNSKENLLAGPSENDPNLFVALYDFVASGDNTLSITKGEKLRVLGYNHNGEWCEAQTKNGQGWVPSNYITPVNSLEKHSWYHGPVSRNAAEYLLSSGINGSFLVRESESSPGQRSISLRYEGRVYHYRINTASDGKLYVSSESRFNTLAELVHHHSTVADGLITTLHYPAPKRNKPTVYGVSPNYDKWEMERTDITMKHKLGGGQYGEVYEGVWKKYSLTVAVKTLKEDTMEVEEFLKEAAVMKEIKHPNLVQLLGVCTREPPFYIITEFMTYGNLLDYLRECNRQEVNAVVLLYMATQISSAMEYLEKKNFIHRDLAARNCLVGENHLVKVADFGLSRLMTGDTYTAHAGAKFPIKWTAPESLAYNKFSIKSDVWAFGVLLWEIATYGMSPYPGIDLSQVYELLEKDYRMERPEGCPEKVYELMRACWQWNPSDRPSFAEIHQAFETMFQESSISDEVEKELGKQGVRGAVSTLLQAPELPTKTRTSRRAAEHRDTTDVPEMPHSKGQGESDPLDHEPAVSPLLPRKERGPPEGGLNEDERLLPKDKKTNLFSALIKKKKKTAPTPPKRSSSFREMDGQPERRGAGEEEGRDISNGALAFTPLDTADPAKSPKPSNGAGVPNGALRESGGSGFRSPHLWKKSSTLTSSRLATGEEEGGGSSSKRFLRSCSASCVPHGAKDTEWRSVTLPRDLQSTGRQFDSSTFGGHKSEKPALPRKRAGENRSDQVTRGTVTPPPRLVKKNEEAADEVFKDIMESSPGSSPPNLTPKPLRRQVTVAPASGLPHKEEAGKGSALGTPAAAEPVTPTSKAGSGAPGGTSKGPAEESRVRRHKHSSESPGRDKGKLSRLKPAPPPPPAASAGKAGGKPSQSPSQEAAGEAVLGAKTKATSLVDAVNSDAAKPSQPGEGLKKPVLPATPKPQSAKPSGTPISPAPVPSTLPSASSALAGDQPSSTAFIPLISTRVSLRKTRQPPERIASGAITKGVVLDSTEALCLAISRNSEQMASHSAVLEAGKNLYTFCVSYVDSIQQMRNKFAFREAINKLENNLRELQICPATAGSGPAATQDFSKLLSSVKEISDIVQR
Cyclin-dependent kinase 9 (Homo sapiens), sequence (P50750 whole entry): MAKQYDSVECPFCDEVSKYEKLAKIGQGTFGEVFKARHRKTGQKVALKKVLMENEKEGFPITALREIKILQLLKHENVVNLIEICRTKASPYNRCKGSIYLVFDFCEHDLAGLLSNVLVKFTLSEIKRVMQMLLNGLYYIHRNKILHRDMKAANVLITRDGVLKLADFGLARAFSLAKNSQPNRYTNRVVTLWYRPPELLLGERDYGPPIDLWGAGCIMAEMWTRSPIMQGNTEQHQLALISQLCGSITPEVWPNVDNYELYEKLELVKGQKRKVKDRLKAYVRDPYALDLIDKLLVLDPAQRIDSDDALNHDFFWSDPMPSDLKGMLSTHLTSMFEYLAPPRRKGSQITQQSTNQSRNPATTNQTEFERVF

Regarding `Nc1nccc(-c2cn(C(=O)c3ccccc3)c3ccc(Br)cc23)n1`, the viability at 10 µM in the data set with SH-SY5Y [1] was 93.2%. Moreover, the viability at 50 µM in the data set on SH-SY5Y [2] is 94.1%. The 50% inhibitory concentration (IC50) (usually the concentration at which inhibition is half-maximal) in the data set with SH-SY5Y [3] was over 100 µM. In data set [4], the viability at 24 h, 30 µM amounted to 65.1%.
In turn, `Nc1nccc(-c2cn(S(=O)(=O)c3ccc(C(F)(F)F)cc3[N+](=O)[O-])c3ccc(Br)cc23)n1` returned an IC50 with SH-SY5Y [3] of 14 µM. Besides, the viability at 24 h, 30 µM in [4] was 15.2%.
Turning to `Nc1nccc(-c2c[nH]c3ccccc23)n1`, the inhibition (usually the change of the read-out against control, counted positive when it falls) was 0% in data set [5]; 0% in data set [6]; 22.3% in [7]; 16.6% in [8]; 4.1% in data set [9]; 0% in data set [10]. In addition, the inhibition worked out at 9.6% in [11]; 7.1% in [12]; 8.5% in data set [13]; 0% in data set [14]; 3.8% in data set [15]; 5.1% in [16]. Besides, the inhibition came out at 0% in data set [17], 8% in [18] and 0% in data set [19]. Besides, the viability at 24 h, 30 µM in [4] was 91.4%.
